Experimental data: patent publication US10538496B2, “Methods using HDAC11 inhibitors” (FORMA Therapeutics, Inc., priority 2016, dated 2020)

Assays:
[1] = system: erythroid cells from MPN patients; test: Colony formation assay from patient samples; type: cell-based, human; conditions: two patient samples (ET; PV, Ruxolitinib resistant)
Procedure: (§1) To determine the effects of selective HDAC11 inhibition on MPN patient samples, the effects of HDAC11 inhibitors were evaluated in a colony formation assay with erythroid or myeloid cells from MPN patients. Peripheral blood was obtained from MPN patients consented through the Moffitt Cancer Center Total Cancer Care protocol (MCC 14690). Blood was treated with HetaSep™ (STEMCELL Technologies, Inc.) to remove the majority of red blood cells. Peripheral blood mononuclear cells (PBMCs) were isolated by ficoll separation. PBMCs (1-4×105) were then plated in 1 mL of methylcellulose medium containing rhSCF, rhIL-3, and granulocyte-macrophage colony-stimulating factor (rhGM-CSF) (MethoCult™ #H4534; STEMCELL Technologies, Inc.). All drug treated samples contained 0.1% DMSO as the final concentration. Cells were incubated at 37° C. and 5% CO2 in a humidified incubator. Colonies were scored 12 to 14 days after plating.

[2] = system: myeloid cells from MPN patients; test: Colony formation assay from patient samples; type: cell-based, human; conditions: two patient samples (ET; PV, Ruxolitinib resistant)
Procedure: as §1

HEL 92.1.7 cells = test: Cell proliferation assay (CCK8); type: cell-based; conditions: 48h
Procedure: (§2) This example describes inhibition of in vitro cell proliferation with exemplary HDAC11 inhibitors. The effects of selective HDAC11 inhibitors on cell proliferation were measured in cell lines containing the MPN-associated mutations MPL W515L (Ba/F3 MPL W515L) and JAK2 V617F (Ba/F3 JAK2 V617F, HEL 92.1.7, SET-2). HEL 92.1.7 and SET-2 cells were purchased from the ATCC and DSMZ, respectively. Ba/F3 cells overexpressing either MPLW515L or JAK2V617F, which were cytokine independent, were generated by transforming Ba/F3 cells with retroviruses overexpressing either MPL W515L or JAK2V617F. For survival assays, cells were seeded in 96-well plates at the density of 0.1 million/ml with addition of indicated compounds and incubated at 37° C. for 48h. CCK8 solution (Dojindo, Rockville, Md.) was added and absorbance at 450 nm was measured after 3 hours of incubation. Readings were normalized to dimethylsulfoxide (DMSO)-treated wells.

SET-2 cells = test: Cell proliferation assay (CCK8); type: cell-based; conditions: Ruxolitinib-resistant SET-2
Procedure: as §2

[3] = system: STAT3 and STAT5 phosphorylation in HEL 92.1.7 cells; test: STAT3 and STAT5 phosphorylation western blot assay; type: cell-based
Procedure: The effects of selective HDAC11 inhibition on STAT3 and STAT3 phosphorylation in HEL 92.1.7 cells were determined by western blot. Cells were treated with HDAC11 inhibitors and lysed in RIPA buffer (Sigma-Aldrich, St. Louis, Mo.) supplemented with protease inhibitors (Roche, Basel, Switzerland) and phosphatase inhibitors (Sigma P5726). Protein concentrations were determined with Pierce BCA protein assay kit (Thermo Fisher Scientific, Waltham, Mass.). Proteins were separated on a 4-12% Bis-Tris gradient electrophoresis gel (Life Technologies, Carlsbad, Calif.) and transferred onto a nitrocellulose membrane. The membrane was then blocked in either 5% nonfat dry milk or 5% BSA followed by incubation with primary antibodies at 4° C. overnight. Antibodies for p-STAT5 (Abcam 32364), STAT5 (Cell Signaling 9358), p-STAT3 (Cell Signaling 9145) and STAT3 (Cell Signaling 9139) were used. β-actin was used as loading control.

[4] = system: H1650 cells co-cultured with primary CAFs from human lung cancer; test: Co-culture assay with cancer cells and cancer associated fibroblasts; type: cell-based
Procedure: The effects of selective HDAC11 inhibition on cancer cells and cancer associated fibroblasts (CAFs) were determined in a co-culture assay. The cells were first trypsinized and collected in serum containing medium and were further incubated in same media at 37° C. for 15-20 min for recovery. The cells were resuspended in serum free media at 1×10^6 cells/ml density and stained with 10 uM of cytotracker green (Cancer associated fibroblasts) or cytotracker red dye (H1650 cells) (Life Technologies Inc) at 37° C. for 90 min. The stained cells were washed twice with serum free medium to remove excess dye at 1500 rpm for 5 min. The cytotracker green stained CAFs were mixed with cytotracker red stained H1650 cells in 1:1 ratio and grown in 96-well tissue culture plate overnight. The HDAC11 inhibitors were then added to the mixed adhered cells (CAFs+H1650) at appropriate concentrations. The images were taken on Day 0 and after every 24 hours using EVOS FL microscope system and EVOS software (Life Technologies Inc).

Ba/F3 MPL W515L cells = test: Cell proliferation assay (CCK8); type: cell-based; conditions: Mus musculus, BaF3; Ba/F3 MPLW515L, 48h; read-out: IC50, inhibition of proliferation
Procedure: as §2

Ba/F3 JAK2 V617F cells = test: Cell proliferation assay (CCK8); type: cell-based; conditions: Mus musculus, BaF3; Ba/F3 JAK2V617F, 48h; read-out: IC50, inhibition of proliferation
Procedure: as §2

A549 cells = test: Cell migration (scratch) assay; type: cell-based
Procedure: The effects of HDAC11 inhibition on cell migration were determined using a scratch assay. A549 cells (120,000-150,000 cells/2 ml/well) were grown in 6-well tissue culture plates (BD Biosciences). A scratch was made using a sterile 2 μl pipette tip in each well. The 10% FBS containing medium was added to the wells after a wash with DPBS. To assess the effect of the HDAC11 inhibitors on cell migration, the inhibitors were added in the medium at appropriate concentrations. The cells were further incubated at 37° C. The images were taken on Day 0 and after every 24 hours using EVOS FL microscope system and EVOS software (Life Technologies Inc) and the cell migration was compared to the Day 0 of treatment.

IC50 (Ba/F3 MPL W515L cells) [µM] | IC50 (Ba/F3 JAK2 V617F cells) [µM] | SMILES | growth of colonies from erythroid cells [1] | growth of colonies from myeloid cells [2] | growth of the HEL 92.1.7 cell line (HEL 92.1.7 cells) | growth of a SET-2 cell line generated to be Ruxolitinib-resistant (SET-2 cells) | STAT3 phosphorylation [3] | STAT5 phosphorylation [3] | growth of H1650 cells co-cultured with primary CAFs ([4]; 1:1 co-culture) | effects on CAFs ([4]; 1:1 co-culture with H1650 cells) | A549 cell migration (A549 cells)
– | – | O=C(NO)c1cccc(Nc2nc3cc(Cl)c(Cl)cc3o2)c1 [HDTK010, 3-((5,6-dichlorobenzo[d]oxazol-2-yl)amino)-N-hydroxybenzamide] | reduced the growth of colonies | reduced the growth of colonies | inhibited the growth | inhibited the growth | inhibited | inhibited | – | – | –
1 to 10 | 1 to 10 | O=C(NO)c1cccc2c1C[C@]1(CCN(Cc3ccc(Cl)c(C(F)(F)F)c3)C1=O)C2 [HDTK054, (S)-1′-(4-chloro-3-(trifluoromethyl)benzyl)-N-hydroxy-2′-oxo-1,3-dihydrospiro[indene-2,3′-pyrrolidine]-4-carboxamide] | – | – | – | – | – | – | inhibit the growth | minimal effects | impaired A549 cell migration
